Activity calls are given as the source filed them. The rule behind the calls is not given here.

The target of assay [1] is C5a anaphylatoxin chemotactic receptor 2 (Homo sapiens) (UniProt Q9P296). The assay can be described thus: Displacement of [125I]-C5a from C5a2 receptor (unknown origin) expressed in Flp-In CHO cell membranes at 100 uM incubated for 1 hr by microbeta scintillation counting assay.
For assay [2] the target is unchanged. As to the kind of experiment: Displacement of [125I]-C5a from C5a2 receptor (unknown origin) expressed in Flp-In CHO cell membranes incubated for 1 hr by microbeta scintillation counting assay.
Assay [3] addresses T1, C5a anaphylatoxin chemotactic receptor 1 (Homo sapiens) (UniProt P21730).
T1 sequence (whole entry): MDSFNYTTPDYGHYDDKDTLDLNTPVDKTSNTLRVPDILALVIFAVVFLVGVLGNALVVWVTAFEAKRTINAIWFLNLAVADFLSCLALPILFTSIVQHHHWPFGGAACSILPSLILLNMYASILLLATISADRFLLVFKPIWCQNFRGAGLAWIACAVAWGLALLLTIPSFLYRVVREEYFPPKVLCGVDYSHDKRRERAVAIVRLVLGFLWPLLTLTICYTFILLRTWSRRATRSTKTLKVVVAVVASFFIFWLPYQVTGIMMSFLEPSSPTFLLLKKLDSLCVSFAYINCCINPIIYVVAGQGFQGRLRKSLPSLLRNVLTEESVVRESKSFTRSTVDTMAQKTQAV
As to the kind of experiment: Displacement of [125I]-C5a from C5a1 receptor (unknown origin) expressed in Flp-In CHO cell membranes incubated for 1 hr by microbeta scintillation counting assay. In general terms: Loss of bound radioactivity is the signal in a displacement assay; it reports binding, not function.

Assay [4] addresses C5a anaphylatoxin chemotactic receptor 2 (Homo sapiens) (UniProt Q9P296). The assay can be described thus: Partial agonist activity at C5a2 receptor (unknown origin) expressed in HEK293 cells assessed as induction of beta-arrestin-2 recruitment incubated for 1 hr by BRET assay. The format is cell-based. For orientation: Arrestin recruitment assays detect the binding of arrestin to an activated receptor.

Assay [5] has the same target. As to the kind of experiment: Partial agonist activity at C5a2 receptor (unknown origin) expressed in HEK293 cells assessed as induction of beta-arrestin-2 recruitment incubated for 1 hr by BRET assay relative to C5a. Type of assay: cell-based.
Assay [6] addresses T1, C5a anaphylatoxin chemotactic receptor 1 (Homo sapiens). The assay can be described thus: Agonist activity at C5a1 receptor (unknown origin) expressed in HEK293 cells assessed as induction of beta-arrestin-2 recruitment at 100 uM incubated for 1 hr by BRET assay. The format is cell-based.
Assay [7] addresses C5a anaphylatoxin chemotactic receptor 2 (Homo sapiens) (UniProt Q9P296). The assay can be described thus: Partial agonist activity at human C5a2 receptor assessed as induction of beta-arrestin-2 recruitment by DiscoverX Path Hunter kit based assay.
Assay [8] concerns the target T1, C5a anaphylatoxin chemotactic receptor 1 (Homo sapiens). The assay can be described thus: Partial agonist activity at human C5a1 receptor assessed as induction of beta-arrestin-2 recruitment by DiscoverX Path Hunter kit based assay.
For assay [9], the target named is C5a anaphylatoxin chemotactic receptor 1/2 (Homo sapiens) (UniProt P21730+Q9P296). As to the kind of experiment: Induction of C5a1-C5a2 heteromer formation (unknown origin) expressed in HEK293 cells at 100 uM by BRET assay. Type of assay: cell-based. A general note: Bioluminescence resonance energy transfer reports proximity on the nanometre scale.
Assay [10] deals with C5a anaphylatoxin chemotactic receptor 2 (Homo sapiens) (UniProt Q9P296). The assay can be described thus: Agonist activity at C5a2 receptor in HMDM assessed as inhibition of LPS-induced TNFalpha release at 0.1 to 100 uM by ELISA.
Assay [11] has the same target. The assay can be described thus: Agonist activity at C5a2 receptor in LPS-induced IHMDM assessed as effect on […] release at 0.1 to 100 uM by ELISA.
Assay [12] has the same target. The assay can be described thus: Agonist activity at C5a2 receptor in HMDM assessed as inhibition of LPS-induced IL-6 release at 100 uM by ELISA.
For assay [13] the target is unchanged. As to the kind of experiment: Agonist activity at C5a2 receptor in HMDM assessed as inhibition of LPS-induced TNFalpha release at 100 uM in presence of C5a1 antagonist PMX53 by ELISA.
For assay [14], the target named is T2, Mitogen-activated protein kinase; ERK1/ERK2 (Homo sapiens) (UniProt P27361+P28482). As to the kind of experiment: Induction of ERK1/2 phosphorylation in HMDM at 100 uM incubated for 30 mins. The format is protein assay.
T2 sequence (P27361 whole entry, looked up): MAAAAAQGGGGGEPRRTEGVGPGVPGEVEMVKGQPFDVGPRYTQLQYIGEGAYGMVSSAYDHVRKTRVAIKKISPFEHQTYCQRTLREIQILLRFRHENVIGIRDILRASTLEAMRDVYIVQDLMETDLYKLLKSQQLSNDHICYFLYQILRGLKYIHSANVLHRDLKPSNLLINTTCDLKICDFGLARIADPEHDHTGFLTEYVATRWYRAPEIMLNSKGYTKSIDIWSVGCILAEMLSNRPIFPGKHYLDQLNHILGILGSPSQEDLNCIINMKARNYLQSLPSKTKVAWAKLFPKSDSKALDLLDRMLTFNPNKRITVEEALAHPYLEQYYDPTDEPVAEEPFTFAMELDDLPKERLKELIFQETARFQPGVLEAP
T2 sequence (P28482 whole entry, looked up): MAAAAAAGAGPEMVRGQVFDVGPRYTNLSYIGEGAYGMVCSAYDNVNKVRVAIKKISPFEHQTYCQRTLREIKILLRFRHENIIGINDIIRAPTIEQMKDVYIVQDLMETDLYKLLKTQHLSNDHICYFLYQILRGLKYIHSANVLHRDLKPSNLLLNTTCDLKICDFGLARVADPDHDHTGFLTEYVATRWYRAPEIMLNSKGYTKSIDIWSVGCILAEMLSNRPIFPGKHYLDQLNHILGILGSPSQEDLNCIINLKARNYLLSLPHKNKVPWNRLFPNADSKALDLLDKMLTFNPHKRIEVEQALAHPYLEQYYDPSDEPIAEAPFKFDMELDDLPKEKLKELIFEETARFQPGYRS
The target of assay [15] is T2, Mitogen-activated protein kinase; ERK1/ERK2 (Homo sapiens). The assay can be described thus: Agonist activity at C5a2 receptor in HMDM assessed as inhibition of C5a-induced induction of ERK1/2 phosphorylation in HMDM at 100 uM pre-incubated for 30 mins before C5a addition and measured after 10 mins.
Assay [16] deals with C5a anaphylatoxin chemotactic receptor 2 (Homo sapiens) (UniProt Q9P296). As to the kind of experiment: Agonist activity at C5a2 receptor in HMDM assessed as inhibition of LPS-induced IL-6 release at 10 to 100 uM by ELISA.
Assay [17] deals with Mus musculus. The assay can be described thus: Inhibition of C5a-induced neutrophil mobilization in iv dosed wild type mouse. Type of assay: functional, organism-based.
In assay [18] the test system is Mus musculus. As to the kind of experiment: Inhibition of C5a-induced neutrophil mobilization in iv dosed C5aR2 (-/-) mouse. Type of assay: functional, organism-based.

Chain of C5a anaphylatoxin chemotactic receptor 2 (Homo sapiens) (Q9P296 whole entry): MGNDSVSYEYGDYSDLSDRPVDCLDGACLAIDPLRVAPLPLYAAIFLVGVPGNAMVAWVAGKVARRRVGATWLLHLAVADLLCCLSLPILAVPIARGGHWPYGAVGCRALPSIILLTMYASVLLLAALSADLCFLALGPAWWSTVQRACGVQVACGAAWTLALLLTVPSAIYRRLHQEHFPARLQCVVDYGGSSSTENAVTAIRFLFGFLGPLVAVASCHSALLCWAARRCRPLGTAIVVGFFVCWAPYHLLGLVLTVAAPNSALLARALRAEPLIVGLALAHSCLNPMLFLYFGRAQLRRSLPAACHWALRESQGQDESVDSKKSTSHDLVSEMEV

Regarding Ac-LIRLWR-OH, the inhibition entry in assay [1], in assay [12] and in assay [15] was “Active” throughout. For the same substance, the inhibition entry in assay [2] and in assay [3] was “Dose-dependent effect” each time. Further, the Activity entry is “Dose-dependent effect” in assay [4] and 52.9% in assay [5]. Further, the outcome in [6], in [8], in assay [9], in assay [11] and in [14] was inactive. Moreover, in [7], the result was Active. In addition, the inhibition entry in assay [10] and in assay [13] was “inactive” each time.

Ac-RHYPYWR-OH: the inhibition entry (in [1]; in assay [16]; in [15]; in the assay with Mus musculus [17]) was “Active” throughout. Besides, the inhibition entry in assay [2] and in assay [3] was “Dose-dependent effect” in each case. Also, the Activity entry in [4] is “Dose-dependent effect”; in assay [5], 28.8%. The result in assay [6], in [8], in assay [9], in [11] and in assay [14] was inactive. Further, the result in assay [7] was Active. Moreover, the inhibition entry (in assay [10]; in assay [13]; with Mus musculus [18]) was “inactive” throughout.

These data come from ChEMBL document CHEMBL4482309, “Discovery of the first selective c5a2 receptor (c5l2/c5ar2) ligands” (2017).
